Where a SMILES comes first, the peptide text is derived from it. [ ]: non-standard residue; d: D form. Dmt = Cc1cc(O)cc(C)c1C[C@H](N)C(=O)O
Experiments:
[1] = Release/stability of API in ammonium bifluoride, stability-indicating RP-HPLC; type: physicochemical; details: for modification of the API by the formulation process: impurities in fresh API vs API released from microparticle formulations
[2] = tested on: age-related visual impairment; details: Alam et al., Disease Models & Mechanisms (2021); cited from earlier work
[3] = tested on: patients with intermediate age-related macular degeneration (AMD) and high-risk drusen (HRD); details: subcutaneous administration, ReCLAIM, Ophthalmology Science 2022; cited from earlier work

SMILES	Purity ([1]; Control/standard: 16 μg/mL Compound I in H2O)	Purity ([1]; Control/standard: 40 μg/mL Compound I in H2O)	Purity ([1]; Spiked: 16 μg/mL Compound I in 0.1M NH4HF2)	Purity ([1]; Spiked: 40 μg/mL Compound I in 0.1M NH4HF2)	modification of the API by the formulation process [1]	treatment of photopic age-related loss of spatial vision [2]	safety and tolerability [3]
Cc1cc(O)cc(C)c1C[C@H](NC(=O)[C@H](N)CCCNC(=N)N)C(=O)N[C@@H](CCCCN)c1nc(Cc2ccccc2)no1 [Compound I]	99.1%	98.4%	99.2%	98.6%	not significantly modified	–	–
Cc1cc(O)cc(C)c1C[C@H](NC(=O)[C@H](N)CCCNC(=N)N)C(=O)N[C@@H](CCCCN)C(=O)N[C@@H](Cc1ccccc1)C(N)=O [elamipretide] (H-[dR][Dmt]KF-NH2)	–	–	–	–	not significantly modified	effective	safe and well-tolerated

From patent publication US20240197623A1, “SILICA-BASED FORMULATIONS OF THERAPEUTIC OLIOGPEPTIDES AND PEPTIDOMIMETICS” (Stealth Bio Therapeutics Inc., priority 2021, published 2024)
